From patent US10413557B2, “Prodrugs of 17.BETA.-HSD1-inhibitors” (FORENDO PHARMA LTD, priority 2014, dated 2019) come the findings set out here.

The target in assay [1] is T1, recombinant human 17β-HSD2 (Homo sapiens, UniProt P37059).
T1 construct: made in house; host or cells: Sd9 (Sf9) insect cells, baculovirus (Bac to Bac Expression System)
T1 sequence (P37059 1-387): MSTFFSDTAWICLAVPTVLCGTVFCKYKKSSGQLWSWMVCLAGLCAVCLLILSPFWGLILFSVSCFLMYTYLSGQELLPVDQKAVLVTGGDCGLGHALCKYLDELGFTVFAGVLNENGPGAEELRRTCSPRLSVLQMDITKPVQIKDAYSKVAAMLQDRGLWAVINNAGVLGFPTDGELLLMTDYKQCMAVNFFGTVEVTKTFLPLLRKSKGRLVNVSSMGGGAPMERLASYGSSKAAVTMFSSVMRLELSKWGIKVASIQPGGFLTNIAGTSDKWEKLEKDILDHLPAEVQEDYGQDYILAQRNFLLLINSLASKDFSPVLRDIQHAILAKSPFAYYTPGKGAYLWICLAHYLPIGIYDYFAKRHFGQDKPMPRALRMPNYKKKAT
Briefly: Inhibition of recombinant human 17β-HSD2 (conversion of 3H-estradiol to estrone, HPLC). The format is biochemical. The note with it: inhibitor 1 μM; 50 nM estradiol, 1 mM NADH, 30 min RT. The method, then:
17β-HSD2 production and isolation: Similarly to 17β-HSD1 the Recombinant baculovirus was generated by the “Bac to Bac Expression System” (Invitrogen). Recombinant bacmid was transfected to Sd9 insect cells using “Cellfectin Reagent” (Invitrogen). 60 h later cells were harvested and supernatant were fractionated by the following protocol: • cells were dissolved into 40 ml of A-buffer (40 mM TRIS, pH8.0, 20% glycerol, 20 μM NAD, 0.4 mM PMSF, 150 mM NaCl, 0.5% dodecyl-β-maltoside+protease inhibitor cocktail) • cells were sonicated • lysate was incubated on ice for 15 min • lysate was centrifuged 5000 rpm 15 min, +4° C. • centrifugation of the supernatant 180 000 g 30 min, +4° C. • pellet was dissolved into 8 ml of A-buffer • not resuspended material was removed by centrifugation 5000 rpm 15 min, +4° C. • the clear supernatant was divided into 100 μl aliquots and were stored frozen until determination of enzymatic activity.
The amount of 17β-HSD2 was analysed by immunoblotting and total protein concentration of each extract batch was determined.
Assay—Inhibition of recombinant human 17β-HSD2: Protein homogenate (4 μg/ml) was incubated in 20 mM KH2PO4 pH 8.5 with 50 nM estradiol (including 800 000 cpm/ml of ^3H-estradiol) and 1 mM […] for 30 min at RT, in the presence of the potential inhibitor at concentrations 1 μM or 0.1 μM. Inhibitor stock solutions were prepared in DMSO. Final concentration of DMSO was adjusted to 1% in all samples. The enzyme reaction was stopped by addition of 10% trichloroacetic acid (final concentration). Samples were centrifuged in a microtiter plate at 4000 rpm for 10 min. Supernatants were applied to reverse phase HPLC on a Waters Symmetry C18 column, equipped with a Waters Sentry Guard column. Isocratic HPLC runs were performed at RT at a flow rate ofl ml/min in acetonitrile:water 48:52 as running solvent. Radioactivity was monitored in the eluate by a Packard Flow Scintillation Analyzer. Total radioactivity for estrone and estradiol were determined in each sample and percent conversion of estradiol to estrone was calculated according to the following formula:
(§1) Percent inhibition was calculated flowingly: % inhibition=100−% conversion

The target in assay [2] is T2, recombinant human 17β-HSD1 (Homo sapiens, UniProt P14061).
T2 construct: made in house; host or cells: Sd9 (Sf9) insect cells, baculovirus (Bac to Bac Expression System)
T2 sequence (P14061 1-328): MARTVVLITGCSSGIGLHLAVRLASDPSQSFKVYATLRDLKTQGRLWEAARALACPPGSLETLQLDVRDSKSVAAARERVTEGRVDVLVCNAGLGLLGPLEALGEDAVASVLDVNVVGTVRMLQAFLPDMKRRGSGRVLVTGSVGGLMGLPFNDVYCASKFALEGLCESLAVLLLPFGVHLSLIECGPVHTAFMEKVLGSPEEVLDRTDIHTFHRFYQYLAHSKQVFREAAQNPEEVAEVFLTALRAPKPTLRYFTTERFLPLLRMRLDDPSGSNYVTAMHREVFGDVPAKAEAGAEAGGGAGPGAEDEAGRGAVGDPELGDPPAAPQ
As to the kind of experiment: Inhibition of recombinant human 17β-HSD1 (conversion of 3H-estrone to estradiol, HPLC). As to conditions: inhibitor 1 μM; 30 nM estrone, 1 mM NADPH, 30 min RT; read-out: 17β-HDS1 Inhibition % at 1 μM. The format is biochemical. The method, then:
17β-HSD1 production and isolation: Recombinant baculovirus was generated by the “Bac to Bac Expression System” (Invitrogen). Recombinant bacmid was transfected to Sd9 insect cells using “Cellfectin Reagent” (Invitrogen). 60 h later cells were harvested; the microsomal fraction was isolated as described by Puranen, T. J., Poutanen, M. H., Peltoketo, H. E., Vihko, P. T. and Vihko, R. K. (1994) Site-directed mutagenesis of the putative active site of human 17 β-hydroxysteroid dehydrogenase type 1. Biochem. J. 304: 289-293. Aliquots were stored frozen until determination of enzymatic activity.
Assay—Inhibition of recombinant human 17β-HSD1: Protein homogenate (0.1 μg/ml) was incubated in 20 mM KH2PO4 pH 7.4 with 30 nM estrone (including 800 000 cpm/ml of ^3H-estrone) and 1 mM NADPH for 30 min at RT, in the presence of the potential inhibitor at concentrations 1 μM or 0.1 μM. Inhibitor stock solutions were prepared in DMSO. Final concentration of DMSO was adjusted to 1% in all samples. The enzyme reaction was stopped by addition of 10% trichloroacetic acid (final concentration). Samples were centrifuged in a microtiter plate at 4000 rpm for 10 min. Supernatants were applied to reverse phase HPLC on a Waters Symmetry C18 column, equipped with a Waters Sentry Guard column. Isocratic HPLC runs were performed at RT at a flow rate of 1 ml/min in acetonitrile:water 48:52 as running solvent. Radioactivity was monitored in the eluate by a Packard Flow Scintillation Analyzer. Total radioactivity for estrone and estradiol were determined in each sample and percent conversion of estrone to estradiol was calculated according to the following formula:
as §1

On to `CO/N=C1\C[C@@H](CCC(=O)Nc2ncc(C)s2)C2C3CCc4cc(O)c(C#N)cc4C3CC[C@]12C` (stereo partly drawn) [VIV-19, 3-{(13S,15R)-3-hydroxy-17-[(E)-methoxyimino]-13-methyl-2-nitrile-7,8,9,11,12,13,14,15,16,17-decahydro-6H-cyclopenta[a]phenanthren-15-yl}-N-(5-methylthiazol-2-yl)propanamide], for which the inhibition (in general, the change of the read-out against control, counted positive when it falls) at 1 µM in assay [1] turned out to be 2%; in assay [2], 93%.
Regarding `Cc1cnc(NC(=O)CC[C@@H]2C/C(=N\O)[C@@]3(C)CCC4c5ccc(O)c(Br)c5CCC4C23)s1` (stereo partly drawn) [VIV-26, 3-{(13S,15R)-4-Bromo-3-hydroxy-17-[(E)-hydroxyimino]-13-methyl-7,8,9,11,12,13,14,15,16,17-decahydro-6H-cyclopenta[a]phenanthren-15-yl}-N-(5-methylthiazol-2-yl)propanamide], the inhibition at 1 µM amounted to 15% in assay [1] and 89% in assay [2].
As for `Cc1cnc(NC(=O)CC[C@@H]2C/C(=N\O)[C@@]3(C)CCC4c5cc(Br)c(O)c(Br)c5CCC4C23)s1` (stereo partly drawn) [VIV-27, 3-{(13S,15R)-2,4-Dibromo-3-hydroxy-17-[(E)-hydroxyimino]-13-methyl-7,8,9,11,12,13,14,15,16,17-decahydro-6H-cyclopenta[a]phenanthren-15-yl}-N-(5-methylthiazol-2-yl)propanamide], the figures for the inhibition at 1 µM in assay [1] and in assay [2] were 28% and 98%, respectively.
As for `CO/N=C1\C[C@@H](CCC(=O)Nc2ncc(C)s2)C2C3CCc4c(cc(I)c(O)c4I)C3CC[C@]12C` (stereo partly drawn) [VIV-8, 3-{(13S,15R)-3-Hydroxy-2,4-diiodo-17-[(E)-methoxyimino]-13-methyl-7,8,9,11,12,13,14,15,16,17-decahydro-6H-cyclopenta[a]phenanthren-15-yl}-N-(5-methylthiazol-2-yl)propanamide], the inhibition at 1 µM is 2% in assay [1] and 61% in assay [2].
Take `Cc1cnc(NC(=O)CC[C@@H]2C/C(=N\O)[C@@]3(C)CCC4c5cc(F)c(O)cc5CCC4C23)s1` (stereo partly drawn) [VIV-31, 3-{(13S,15R)-2-Fluoro-3-hydroxy-17-[(E)-hydroxyimino]-13-methyl-7,8,9,11,12,13,14,15,16,17-decahydro-6H-cyclopenta[a]phenanthren-15-yl}-N-(5-methylthiazol-2-yl)propanamide]: the inhibition at 1 µM in assay [1] worked out at 14%; in assay [2], 97%.
Take `Cc1cnc(NC(=O)CC[C@@H]2C/C(=N\O)[C@@]3(C)CCC4c5ccc(O)c([N+](=O)[O-])c5CCC4C23)s1` (stereo partly drawn) [VIV-24, 3-{(13S,15R)-3-Hydroxy-4-nitro-17-[(E)-hydroxyimino]-13-methyl-7,8,9,11,12,13,14,15,16,17-decahydro-6H-cyclopenta[a]phenanthren-15-yl}-N-(5-methylthiazol-2-yl)propanamide]: the inhibition at 1 µM in assay [1] is 33%; in assay [2] it was 96%.
Take `Cc1cnc(NC(=O)CC[C@@H]2C/C(=N\O)[C@@]3(C)CCC4c5cc(Cl)c(O)cc5CCC4C23)s1` (stereo partly drawn) [VIV-28, 3-{(13S,15R)-2-Chloro-3-hydroxy-17-[(E)-hydroxyimino]-13-methyl-7,8,9,11,12,13,14,15,16,17-decahydro-6H-cyclopenta[a]phenanthren-15-yl}-N-(5-methylthiazol-2-yl)propanamide]: the inhibition at 1 µM in assay [1] amounted to 21%; in assay [2], 98%.
Regarding `CO/N=C1\C[C@@H](CCC(=O)Nc2ncc(C)s2)C2C3CCc4c(ccc(O)c4I)C3CC[C@]12C` (stereo partly drawn) [VIV-7, 3-{(13S,15R)-3-Hydroxy-4-iodo-17-[(E)-methoxyimino]-13-methyl-7,8,9,11,12,13,14,15,16,17-decahydro-6H-cyclopenta[a]phenanthren-15-yl}-N-(5-methylthiazol-2-yl)propanamide], the inhibition at 1 µM in assay [1] was 0%; in assay [2] it was 81%.
For the molecule `Cc1cnc(NC(=O)CC[C@@H]2C/C(=N\O)[C@@]3(C)CCC4c5cc([N+](=O)[O-])c(O)cc5CCC4C23)s1` (stereo partly drawn) [VIV-23, 3-{(13S,15R)-3-Hydroxy-2-nitro-17-[(E)-hydroxyimino]-13-methyl-7,8,9,11,12,13,14,15,16,17-decahydro-6H-cyclopenta[a]phenanthren-15-yl}-N-(5-methylthiazol-2-yl)propanamide], the inhibition at 1 µM in assay [1] came to 6%; in assay [2] it was 95%.
Take `Cc1cnc(NC(=O)CC[C@@H]2C/C(=N\O)[C@@]3(C)CCC4c5cc(Cl)c(O)c(Cl)c5CCC4C23)s1` (stereo partly drawn) [VIV-30, 3-{(13S,15R)-2,4-Dichloro-3-hydroxy-17-[(E)-hydroxyimino]-13-methyl-7,8,9,11,12,13,14,15,16,17-decahydro-6H-cyclopenta[a]phenanthren-15-yl}-N-(5-methylthiazol-2-yl)propanamide]: the inhibition at 1 µM in assay [1] was 23%; in assay [2] it was 87%.
The like results for `CO/N=C1\C[C@@H](CCC(=O)Nc2ncc(C)s2)C2C3CCc4c(cc(F)c(O)c4Br)C3CC[C@]12C` (stereo partly drawn) [VIV-18, 3-{(13S,15R)-4-Bromo-2-fluoro-3-hydroxy-17-[(E)-methoxyimino]-13-methyl-7,8,9,11,12,13,14,15,16,17-decahydro-6H-cyclopenta[a]phenanthren-15-yl}-N-(5-methylthiazol-2-yl)propanamide] were, in that order, 1% and 55%.
As for `Cc1cnc(NC(=O)CC[C@@H]2C/C(=N\O)[C@@]3(C)CCC4c5ccc(O)c(Cl)c5CCC4C23)s1` (stereo partly drawn) [VIV-29, 3-{(13S,15R)-4-Chloro-3-hydroxy-17-[(E)-hydroxyimino]-13-methyl-7,8,9,11,12,13,14,15,16,17-decahydro-6H-cyclopenta[a]phenanthren-15-yl}-N-(5-methylthiazol-2-yl)propanamide], the inhibition at 1 µM worked out at 21% in assay [1] and 98% in assay [2].
For `CO/N=C1\C[C@@H](CCC(=O)Nc2ncc(C)s2)C2C3CCc4cc(O)c(I)cc4C3CC[C@]12C` (stereo partly drawn) [VIV-6, 3-{(13S,15R)-3-Hydroxy-2-iodo-17-[(E)-methoxyimino]-13-methyl-7,8,9,11,12,13,14,15,16,17-decahydro-6H-cyclopenta[a]phenanthren-15-yl}-N-(5-methylthiazol-2-yl)propanamide], the inhibition at 1 µM was found to be 0% in assay [1] and 90% in assay [2].
